Our source for the IC50 values is US9266908B2, “Inhibitors of arginase and their therapeutic applications” (MARS, INCORPORATED, priority 2011, dated 2016).

One test deals with T1, arginase II (ARG II) (Homo sapiens, UniProt P78540).
T1 sequence (P78540 23-354): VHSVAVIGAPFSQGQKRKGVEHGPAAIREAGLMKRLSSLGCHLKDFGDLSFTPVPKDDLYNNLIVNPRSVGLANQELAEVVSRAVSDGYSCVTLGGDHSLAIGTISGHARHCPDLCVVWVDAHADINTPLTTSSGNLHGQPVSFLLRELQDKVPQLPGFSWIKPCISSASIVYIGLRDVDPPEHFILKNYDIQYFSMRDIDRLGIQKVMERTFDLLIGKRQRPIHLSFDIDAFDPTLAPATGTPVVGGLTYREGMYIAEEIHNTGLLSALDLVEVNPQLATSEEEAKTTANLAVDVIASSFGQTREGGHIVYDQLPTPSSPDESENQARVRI
The experiment in a line: Inhibition of arginase II, spectrophotometric urea assay at 530 nm.

In a further test the target is T2, human arginase I (ARG I) (Homo sapiens, UniProt P05089).
T2 sequence (P05089 1-322): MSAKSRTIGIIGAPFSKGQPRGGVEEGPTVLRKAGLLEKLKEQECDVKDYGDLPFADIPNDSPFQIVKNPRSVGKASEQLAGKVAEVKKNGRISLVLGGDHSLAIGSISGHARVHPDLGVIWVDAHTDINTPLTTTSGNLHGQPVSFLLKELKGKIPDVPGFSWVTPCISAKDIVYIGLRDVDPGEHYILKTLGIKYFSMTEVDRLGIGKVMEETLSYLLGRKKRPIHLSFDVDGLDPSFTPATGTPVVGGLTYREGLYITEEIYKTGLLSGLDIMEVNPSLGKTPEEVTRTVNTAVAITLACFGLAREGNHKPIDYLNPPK
The test can be described thus: Inhibition of arginase I, spectrophotometric urea assay at 530 nm.

A value given as a limit tells only on which side of the number the result lay.

Protocol for arginase II (ARG II): (§1) Inhibition of arginase I (ARG I) and arginase II (ARG II) by the inventive compounds is followed spectrophotometrically at 530 nm. […] Solutions of arginase I and II are prepared in 100 mM sodium phosphate buffer, pH 7.4 containing 1 mg/ml of OVA to give an arginase stock solution at a final concentration of 100 ng/ml.
(§2) To each well of a 96-well microtiter plate is add 40 μl of enzyme, 10 μl of an inventive compound and 10 μl of enzyme substrate (L-arginine+ manganese sulfate). For wells that are used as positive controls, only the enzyme and its substrate are added, while wells used as negative controls contain only manganese sulfate.
(§3) After incubating the microtiter plate at 37° C. for 60 minutes, 150 μl of a urea reagent obtained by combining equal proportions (1:1) of reagents A and B is added to each well of the microtiter plate to stop the reaction. The urea reagent is made just before use by combining Reagent A (10 mM o-phthaldialdehyde, and 0.4% polyoxyethylene (23) lauryl ether (w/v) in 1.8 M sulfuric acid) with Reagent B (1.3 mM primaquine diphosphate, 0.4% polyoxyethylene (23) lauryl ether (w/v), 130 mM boric acid in 3.6 M sulfuric acid). After quenching the reaction mixture, the microtiter plate is allowed to stand for an additional 10 minutes at room temperature to allow color development. […] The normalized OD is then used to generate a dose-response curve by plotting the normalized OD values against log [concentration] and using regression analysis to compute the IC50 values.
Protocol for human arginase I (ARG I): as §1, §2, §3

Consider `CCCN(C)CC[C@](N)(CCCCB(O)O)C(=O)O` [Example 69, (R)-2-amino-6-borono-2-(2-(methyl(propyl)amino)ethyl)hexanoic acid], for which the concentration for half-maximal inhibition (IC50) against arginase II (ARG II) and against human arginase I (ARG I) was 101 to 500 nM each time.

Take `CC(C)NCC[C@](N)(CCCCB(O)O)C(=O)O` [Example 70, (R)-2-amino-6-borono-2-(2-(isopropylamino)ethyl)hexanoic acid]: the IC50 on arginase II (ARG II) was in the range of 101 to 500 nM; against human arginase I (ARG I) it was 26 to 100 nM.

Regarding `CC(C)CNCC[C@](N)(CCCCB(O)O)C(=O)O` [Example 71, (R)-2-amino-6-borono-2-(2-(isobutylamino)ethyl)hexanoic acid], the 50% inhibitory concentration (IC50) against arginase II (ARG II) and at human arginase I (ARG I) was 101 to 500 nM each time.

In the case of `NC1(c2ccc(Cl)cc2)CC(C(N)(CCCCB(O)O)C(=O)O)C1` (stereo not shown) [Example 73, 2-amino-2-(3-amino-3-(4-chlorophenyl)cyclobutyl)-6-boronohexanoic acid], the half-maximal inhibitory concentration (IC50) lay in the range of 101 to 500 nM on arginase II (ARG II) and 501 to 1500 nM on human arginase I (ARG I).

Turning to `NC(CCCCB(O)O)(CCCN1CCCC1)C(=O)O` (stereo not shown) [Example 38, 2-amino-6-borono-2-(3-(pyrrolidin-1-yl)propyl)hexanoic acid], the IC50 at arginase II (ARG II) and on human arginase I (ARG I) was 101 to 500 nM each time.

On to `NC(CCCCB(O)O)(C(=O)O)[C@H]1C[C@@H](NCc2ccc(O)cc2)C1` (stereo partly drawn) [Example 20, (S)-2-amino-6-borono-2-((1s,3R)-3-(4-hydroxybenzylamino)cyclobutyl)hexanoic acid], for which the 50% inhibitory concentration (IC50) against arginase II (ARG II) and on human arginase I (ARG I) was 26 to 100 nM throughout.

On to `NC(CCCCB(O)O)(C(=O)O)[C@H]1C[C@@H](N2Cc3ccccc3C2)C1` (stereo partly drawn) [Example 29, 2-amino-6-borono-2-((1s,3R)-3-(isoindolin-2-yl)cyclobutyl)hexanoic acid], for which the IC50 on arginase II (ARG II) and on human arginase I (ARG I) was 101 to 500 nM in each case.

Turning to `NC(CCCCB(O)O)(C(=O)O)[C@H]1C[C@@H](NCCc2ccc(F)c(F)c2)C1` (stereo partly drawn) [Example 3, (S)-2-amino-6-borono-2-((1s,3R)-3-(3,4-difluorophenethylamino)cyclobutyl)hexanoic acid], the IC50 against arginase II (ARG II) and against human arginase I (ARG I) was 26 to 100 nM throughout.

For `NC(CCCCB(O)O)(C(=O)O)[C@H]1C[C@@H](NCCCc2cc(F)cc(Cl)c2)C1` (stereo partly drawn) [Example 2, (S)-2-amino-6-borono-2-((1s,3R)-3-(3-(3-chloro-5-fluorophenyl)propylamino)cyclobutyl)hexanoic acid], the half-inhibitory concentration (IC50) lay within 0.1 to 25 nM at arginase II (ARG II) and 26 to 100 nM against human arginase I (ARG I).

Consider `CNC(CCCCB(O)O)(CCN1CCC(c2ccc(Cl)cc2)CC1)C(=O)O` (stereo not shown) [Example 37, 6-borono-2-(2-(4-(4-chlorophenyl)piperidin-1-yl)ethyl)-2-(methylamino)hexanoic acid], for which the half-inhibitory concentration (IC50) on arginase II (ARG II) and against human arginase I (ARG I) was 101 to 500 nM each time.

As to `CNC(CCCCB(O)O)(CCN1CCc2c(Cl)cccc2C1)C(=O)O` (stereo not shown) [Example 31, 6-borono-2-(2-(5-chloro-3,4-dihydroisoquinolin-2(1H)-yl)ethyl)-2-(methylamino)hexanoic acid], the IC50 against arginase II (ARG II) and against human arginase I (ARG I) was 101 to 500 nM in each case.

Consider `NC(CCCCB(O)O)(C(=O)O)[C@H]1C[C@@H](NCCc2ccc(-c3ccccc3)cc2)C1` (stereo partly drawn) [Example 65, (S)-2-amino-2-((1s,3R)-3-(2-(biphenyl-4-yl)ethylamino)cyclobutyl)-6-boronohexanoic acid], for which the results for the IC50 at arginase II (ARG II) and on human arginase I (ARG I) were 0.1 to 25 nM and 26 to 100 nM, respectively.

Regarding `NC(CCCCB(O)O)(C(=O)O)[C@H]1C[C@@H](NCCCc2ccccc2)C1` (stereo partly drawn) [Example 1, (S)-2-amino-6-borono-2-((1s,3R)-3-(3-phenylpropylamino)cyclobutyl) hexanoic acid], the IC50 against arginase II (ARG II) fell in the range of 26 to 100 nM.

As for `N[C@](CCCCB(O)O)(CCNC1Cc2ccccc2C1)C(=O)O` [Example 66, (R)-2-amino-6-borono-2-(2-(2,3-dihydro-1H-inden-2-ylamino)ethyl)hexanoic acid], the IC50 against arginase II (ARG II) and against human arginase I (ARG I) was 101 to 500 nM in each case.

Take `NC(CCCCB(O)O)(C(=O)O)[C@H]1C[C@@H](NCC2CCN(c3ccc(C(=O)O)cc3)CC2)C1` (mixture of isomers) [Example 59, 4-(4-(((1R,3s)-3-((S)-1-amino-5-borono-1-carboxypentyl)cyclobutylamino)methyl)piperidin-1-yl)benzoic acid]: the IC50 against arginase II (ARG II) and on human arginase I (ARG I) was 26 to 100 nM throughout.

As for `CNC(CCCCB(O)O)(CCN1CCC(C)(C)CC1)C(=O)O` (stereo not shown) [Example 34, 6-borono-2-(2-(4,4-dimethylpiperidin-1-yl)ethyl)-2-(methylamino)hexanoic acid], the IC50 on arginase II (ARG II) and at human arginase I (ARG I) was 101 to 500 nM throughout.

Take `N[C@](CCCCB(O)O)(CCN1Cc2ccccc2C1)C(=O)O` [Example 72, (R)-2-amino-6-borono-2-(2-(isoindolin-2-yl)ethyl)hexanoic acid]: the IC50 fell in the range of 501 to 1500 nM against arginase II (ARG II) and 101 to 500 nM at human arginase I (ARG I).

For `NC(CCCCB(O)O)(C(=O)O)[C@H]1C[C@@H](NCCc2ccc(Cl)cc2Cl)C1` (stereo partly drawn) [Example 4, (S)-2-amino-6-borono-2-((1s,3R)-3-(2,4-dichlorophenethylamino)cyclobutyl)hexanoic acid], the IC50 against arginase II (ARG II) and on human arginase I (ARG I) was 26 to 100 nM in each case.

For `NC(CCCCB(O)O)(C(=O)O)[C@H]1C[C@H](N(Cc2ccccc2)Cc2ccccc2)C1` (relative stereo) [Example 28, (S)-2-amino-6-borono-2-((1r,3S)-3-(dibenzylamino)cyclobutyl)hexanoic acid], the half-inhibitory concentration (IC50) against arginase II (ARG II) and on human arginase I (ARG I) was greater than 1500 nM each time.

Turning to `NC(CCCCB(O)O)(C(=O)O)[C@H]1C[C@@H](NCc2cccc(-c3ccccc3)c2)C1` (stereo partly drawn) [Example 7, (S)-2-amino-2-((1s,3R)-3-(biphenyl-3-ylmethylamino)cyclobutyl)-6-boronohexanoic acid], the IC50 on arginase II (ARG II) and on human arginase I (ARG I) was 26 to 100 nM each time.

As to `NC(CCCCB(O)O)(C(=O)O)[C@@H]1CC[C@H](NCc2ccc(-c3ccccc3)cc2)C1` (stereo partly shown) [Example 42], the IC50 on arginase II (ARG II) and against human arginase I (ARG I) was 26 to 100 nM throughout.

With `NC1(Cc2ccc(Cl)cc2)CC(C(N)(CCCCB(O)O)C(=O)O)C1` (stereo not shown) [Example 74, 2-amino-2-(3-amino-3-(4-chlorobenzyl)cyclobutyl)-6-boronohexanoic acid], the half-inhibitory concentration (IC50) against arginase II (ARG II) and at human arginase I (ARG I) was 101 to 500 nM throughout.

Take `CNC(CCCCB(O)O)(CCN1CCc2ccccc2C1)C(=O)O` (stereo not shown) [Example 32, 6-borono-2-(2-(3,4-dihydroisoquinolin-2(1H)-yl)ethyl)-2-(methylamino)hexanoic acid]: the concentration for half-maximal inhibition (IC50) against arginase II (ARG II) and on human arginase I (ARG I) was 101 to 500 nM throughout.

Consider `NC(CCCCB(O)O)(C(=O)O)[C@H]1C[C@@H](NC[C@@H]2Cc3ccccc3CN2)C1` (stereo partly drawn) [Example 14, (S)-2-amino-6-borono-2-((1R,3R)-3-(((S)-1,2,3,4-tetrahydroisoquinolin-3-yl)methylamino)cyclobutyl)hexanoic acid], for which the IC50 against arginase II (ARG II) and against human arginase I (ARG I) was 26 to 100 nM throughout.

With `CNC(CCCCB(O)O)(C(=O)O)[C@H]1C[C@@H](N)C1` (stereo partly drawn) [Example 75, (S)-2-((1s,3R)-3-aminocyclobutyl)-6-borono-2-(methylamino)hexanoic acid], the IC50 against arginase II (ARG II) and against human arginase I (ARG I) was 101 to 500 nM each time.
